What was measured:
[1] = system: HCT116 p53^−/− cancer cells; assay: Autophagy (CYTO-ID staining, confocal); assay type: cell-based, human; conditions: 3.125 μM, 40 h
Procedure: FIG. 17. The effects of [L2Cu3]^6+, [L2Zn3]^6+ and [L2Mn3]^6+ on cellular vacuole formation and autophagy in the HCT116 p53^−/− cancer cells. Representative confocal images are shown of HCT116 p53^−/− cancer cells following 40 h treatment with vehicle control or 3.125 μM [L2Cu3]^6+, [L2Zn3]^6+, or [L2Mn3]^6+.
Autophagy studies: The effects of 3.125 μM [L2Cu3]^6+, [L2Zn3]^6+ and [L2Mn3]^6+ treatments (40 h) on the induction of cellular vacuoles and autophagy in the HCT116 p53^−/−, HCT116 p53^+/+ and ARPE19 cells are presented in FIGS. 17-19 with representative cell images shown. […] In the ARPE19 cells, levels of autophagy were low with all treatments and similar to basal levels in control-treated cells (FIG. 19).

[2] = Dephosphorylation of phosphorylated amino acid (31P NMR); conditions: 37° C.
Procedure: (§1) FIG. 6. Phosphatase activity of [L2Zn3]^6+. ^31P NMR spectra using different substrates including PhOPO3 (spectra A to D), serine phosphate (spectra E to H), threonine phosphate (spectra I to L) and tyrosine phosphate (spectra M to P). Specific details for each ^31P NMR spectra are as follows: Spectra A, E, I and M represent substrate alone (44 hrs incubated @ 37° C.); Spectra B, F, J and N represents [L2Zn3]^6+ plus substrate (t=0 min); Spectra C, G, K and O represents [L2Zn3]^6+ plus substrate incubated @ 37° C. for 19 hours; Spectra D, H, L and […] represents [L2Zn3]^6+ plus substrate incubated @ 37° C. for 44 hours. The ^31P NMR of [L2Zn3(PO4)]^3+ gives a signal at 8.6 ppm.
(§2) Given the importance of protein phosphorylation in inter- and intra-cellular signalling and to cell function, and its common dysregulation in cancers,^30, 31 it was next analysed whether the Zn^2+ complex could dephosphorylate the phosphorylated amino acids serine, threonine and tyrosine. […] Dephosphorylation of the amino acid threonine-OPO3^2− by the Zn^2+ complex was much slower however and after 48 hrs threonine-OPO3^2− was still the major species (FIG. 6, spectra I-L). Differences in reactivity towards different substrates can be attributed to both steric and electronic effects. […]

[3] = Phosphatase activity: hydrolysis of 4-nitrophenyl phosphate; conditions: following mixing
Excerpt: Only [L2Zn3(PO4)]^3+ was observed, coupled with a rapid yellowing of the solution due to the formation of 4-nitrophenolate.
The rate of substrate hydrolysis is also dependent upon the metal used in the self-assembly process.

[4] = system: ARPE19 non-cancer cells; assay: Cellular ATP levels; assay type: cell-based, human; conditions: 100 μM, 20 h
Procedure: FIG. 20. The effects of [L2Cu3]^6+, [L2Zn3]^6+ and [L2Mn3]^6+ on cellular ATP levels in the ARPE19 non-cancer and HCT116 p53^+/+ cancer cells. The effects of 20 h treatment with the indicated concentrations of [L2Cu3]^6+, [L2Zn3]^6+, or [L2Mn3]^6+ on total cellular levels of ATP compared to levels in vehicle control-treated ARPE19 or HCT116^+/+ cells. n=3 biological repeats, students t-test (p values).
Cellular ATP studies: The effects of 20 h treatment with a range of different concentrations of [L2Cu3]^6+, [L2Zn3]^6+ and [L2Mn3]^6+ on total cellular ATP levels in HCT116 p53^+/+ and ARPE19 cells are presented in FIG. 20. Differential effects are observed depending on the metal in the complex, with [L2Mn3]^6+ having the most profound effects on both the HCT116 p53^+/+ cancer and ARPE19 non-cancer cells. 6.25 μM [L2Mn3]^6+ treatment for 20 h reduced ATP levels in the HCT116 p53^+/+ cancer cells to <50% with ATP levels declining less in the ARPE19 non-cancer cells but reaching ˜40% with 100 μM [L2Mn3]^6+ treatment. […] Effects of [L2Cu3]^6+ on ATP levels was much less, with ATP levels in the HCT116 cells reduced to <50% only at the highest concentration of 100 μM.

[5] = Dephosphorylation of phosphorylated amino acid (31P NMR); conditions: 37° C.; remark: listed apart in the source
Procedure: as §1, §2

Structure (SMILES)	induction of autophagy [1]	time to completion of dephosphorylation [2]	hydrolysis of 4-nitrophenyl phosphate by 31P NMR [3]	ATP levels compared to vehicle control [4]	time to completion of dephosphorylation [5]	rate of dephosphorylation ([5]; after 48 hrs threonine-OPO3^2− still the major species)
[Cu+2].[Cu+2].[Cu+2].c1ccc(-c2csc(NCCN(CCNc3nc(-c4ccccn4)cs3)CCNc3nc(-c4ccccn4)cs3)n2)nc1.c1ccc(-c2csc(NCCN(CCNc3nc(-c4ccccn4)cs3)CCNc3nc(-c4ccccn4)cs3)n2)nc1 [[L2Cu3]^6+]	no or little autophagy	–	–	–	–	–
[Zn+2].[Zn+2].[Zn+2].c1ccc(-c2csc(NCCN(CCNc3nc(-c4ccccn4)cs3)CCNc3nc(-c4ccccn4)cs3)n2)nc1.c1ccc(-c2csc(NCCN(CCNc3nc(-c4ccccn4)cs3)CCNc3nc(-c4ccccn4)cs3)n2)nc1 [[L2Zn3]^6+]	–	48 h	almost immediate hydrolysis	> 70%	48 h	much slower

From US20230322815A1, “NOVEL COMPOUNDS AND THERAPEUTIC USES THEREOF” (University of Huddersfield, priority 2020, published 2023)
